Source: patent US10513529B2, “1,2,4-triazolo-[3,4-b]-1,3,4-thiadiazole derivatives” (GALENICA S.A., priority 2016, dated 2019)

Key:
[1] = test system: UWB1.289 human ovarian cancer cell line (mutant BRCA1); test: MTT cytostatic-cytotoxic activity, UWB1.289; assay type: cell-based; details: UWB1.289, 48 h treatment
Procedure: Also, UWB1.289 cells have mutated the p53 tumor suppressor gene and positive Wilms' tumor protein (WT) expression, have no functional BRCA1 gene and are positive for the expression of cytokeratin 7 (CK-7), calretinin and Wilms' tumor protein (WT). Finally they are sensitive to ionizing radiation.
(§1) All cancer cell lines are stored in a liquid nitrogen tank in 2.5 ml cryovials (Corning-Costar, Cambridge, Mass.). DMSO (dimethylsulfoxide) act as a cryoprotectant and is added to prevent the formation of ice crystals which may lyse the cells. The Cells were grown as monolayer cultures in T-75 flasks (Corning-Costar, Cambridge, Mass.) and maintained at 37° C. in 5% CO2 incubator & 100% relative humidity. The cultures medium used are McCoy's 5a Medium, supplemented with 10% fetal bovine serum (FBS, Gibco) and 1% antibiotics (100 IU/ml penicillin/100 µg/ml streptomycin), sterilized by filtration (Corning-Costar filter, diameter 0.2 μm, RPMI-1640 and 50% RPMI-1640 (Catalog No 30-2001) plus 50% Mammary Epithelial Growth Medium (MEGM), supplemented with 10% fetal bovine serum (FBS, Gibco) and 1% antibiotics (100 IU/ml penicillin/100 μg/ml streptomycin). The passage is performed every 3-4 to days as follows: Cells are washed with sterile PBS (Phosphate buffered saline): 8 g/l NaCl, 0,2 g/l KCl, 1,15 g/l Na2HPO4καl 0,2 g/l KH2PO4. pH:7,4), add 2-3 ml 0.05% trypsin (Gibco 1:250) and 0.02% EDTA to cover the monolayer and incubate the flask at 3TC for 5-10 minutes. Trypsin-EDTA, is used mainly to detach the cells from the flask and prepare a single cell suspension. Finally, the number of cells can be determined by direct counting using a Neubauer chamber and cell viability is determined by staining the cells with trypan blue.
(§2) In the experimental study the in vitro effect of the compound type (I) was evaluated against ovarian cancer cell lines UWB1.289, UWB1.289+BRCA1 Kai SKOV-3.The cells were plated in 96-well plate (MTP) at a density of 1×10^4cells/m1 per well and maintained for 72 h at 3TC in a 5% CO2 incubator and grown as monolayers. The selection of the initial number of cells was made according to the rate of proliferation of the cell line, in order the cells throughout the experiment are in an exponential (log) growth phase. After 24 hours, cells were treated with 1-100 μmol/l of the tested compounds for 48 h. Experiments were carried out using triplicate wells. The viability of cultured cells was estimated by an (3-(4,5-imethylthiazol-2-yl)-2,5-diphenyltetrazolium bromide (MTT) metabolic assay as described previously (Finlay G J, Wilson W R and Baguley B C: Comparison of in vitro activity of cytotoxic drugs towards human carcinoma and leukaemia cell lines. Eur J Cancer Clin Oncol 22: 655-662, 1986; Alley M C, Scudiero D A, Monks A, Hursey M L, Czerwinski M J, Fine D L, et al. Feasibility of drug screening with panels of human tumor cell lines using a microculture tetrazolium assay. Cancer Res 1988; 48:589-601). MTT (Sigma, St Louis, Mo., USA) was dissolved in PBS in a concentration of 5 mg/ml, filter sterilized, and stored at 4° C. MTT (50 μl of stock solution) was added to each culture and incubated for 3 h at 3TC to allow metabolization. Formazan crystals were solubilized by DMSO (100 μl). Absorbance of the converted dye was measured at a wavelength of 540nm on ELISA reader (BioTek, Winooski, Vt., USA).
(§3) GI50: The mean concentration that causes 50% inhibition of cell growth (Growth Inhibition 50%). The calculation of the value is based on the formula: (Tt72x)−(Ct24)/(Ct72)-(Ct24)×100=50
(§4) TGI: The mean concentration that causes 100% inhibition of cell growth (Total Growth Inhibition). The value is calculated according to the formula: (Tt72x)−(Ct24)/(Ct72)−(Ct24)×100=0
(§5) IC50: The mean concentration that kills 50% of the cells (Inhibition Concentration 50%). The value is calculated according to the formula: (Tt72x)−(Ct24)/(Ct24)×100=[…]

[2] = test system: UWB1.289 + BRCA1 human ovarian cancer cell line; test: MTT cytostatic-cytotoxic activity, UWB1.289+BRCA1; assay type: cell-based; details: UWB1.289+BRCA1, 48 h treatment
Procedure: Human ovarian adenocarcinoma cells, derived from UBWB1,289, in which the presence of the BRCA1 gene has been restored. […] They are not susceptible to ionizing radiation and radioimmune chemical agents (e.g., alkylating agents). Also, UWB1.289 cells have mutated the p53 tumor suppressor gene, and are positive for the expression of cytokeratin 7 (CK-7), calretinin and Wilms' tumor protein (WT).
as §1, §2, §3, §4, §5

[3] = test system: A-549 human lung carcinoma cell line; test: MTT cytostatic-cytotoxic activity, A-549; assay type: cell-based; details: A-549, 48 h treatment
[4] = test system: MOLT-4 human acute T-leukemia cell line; test: MTT cytostatic-cytotoxic activity, MOLT-4; assay type: cell-based; details: MOLT-4, 48 h treatment
[5] = test system: PC-3 human hormone-resistant prostate cancer cell line; test: MTT cytostatic-cytotoxic activity, PC-3; assay type: cell-based; details: PC-3, 48 h treatment
[6] = test system: OVCAR-3 human ovarian cancer cell line; test: MTT cytostatic-cytotoxic activity, OVCAR-3; assay type: cell-based; details: OVCAR-3, 48 h treatment
Procedure: (§6) SKOV-3 (SKOV-3) (ATCC HTB 77) and OVCAR-3 (ATCC® HTB-161™)
(§7) Human ovarian adenocarcinoma cells, which are grown easily in monolayer culture with epithelial-like morphology. SKOV-3 are resistant to tumor necrosis factor (TNF) and to other cytotoxic drugs such as cisplatin, and adriamycin, while OVCAR-3 are resistant to adriamycin, cisplatin and melphalan. These cell lines express androgens, estrogens and progesterone receptors. When SKOV-3 or OVCAR-3 cells are subcutaneously implanted in nude mice, SCID mice, a moderately differentiated tumor develops, and the resulting model resembles primary ovarian adenocarcinoma in humans.
as §1, §2, §3
(§8) TGI: The mean concentration that causes 100% inhibition of cell growth (Total Growth Inhibition). […]

[7] = test system: SKOV-3 human ovarian cancer cell line; test: MTT cytostatic-cytotoxic activity, SKOV-3; assay type: cell-based; details: SKOV-3, 48 h treatment
Procedure: as §6, §7, §1, §2, §3, §8

[8] = test system: MCF-7 human breast cancer cell line; test: MTT cytostatic-cytotoxic activity, MCF-7; assay type: cell-based; details: MCF-7, 48 h treatment
[9] = test system: T-47D human breast cancer cell line; test: MTT cytostatic-cytotoxic activity, T-47D; assay type: cell-based; details: 48 h treatment
[10] = test system: all 9 human cancer cell lines; test: MTT cytostatic-cytotoxic activity, all 9 human cancer cell lines; assay type: cell-based; details: for IC50: Homo sapiens, read-out: (cytotoxic); for GI50: in all 9 human cancer cell lines, read-out: IG50 (cytostatic)
[11] = in vivo; details: both sexes, mouse, in vivo, ip; C57BI/6 mice, acute toxicity
Procedure: The acute toxicity of the compounds was assessed from lethality by testing different concentrations, starting at 100mg/kg. […] For intraperitoneal (i.p.) treatment, stock solutions of the tested compounds were prepared immediately before use. They were suspended in corn oil in the desired concentration following initial dissolution in 10% dimethylsulfoxide (DMSO). C57BI/6 male and female were used for toxicity studies. Mice were kept under conditions of constant temperature and humidity in sterile cages with water and food.

SMILES: COc1cc(Cc2nnc3sc(/C=C/c4cccc(F)c4)nn23)c(S(=O)(=O)N(C)C)cc1OC [TS29, 3-[2-(N,N-dimethylsulfamoyl)-4,5dimethoxybenzyl]-6-(E)-3-fluorostyryl-1,2,4-triazolo[3,4-b]-1,3,4-thiazole]
- GI50 [1]: 10 µM
- TGI [1]: 67 µM
- IC50 ([1]; kills 50% of the cells): > 100 µM
- GI50 [2]: 10 µM
- TGI [2]: 64 µM
- IC50 ([2]; kills 50% of the cells): > 100 µM
- GI50 [3]: 30 µM
- TGI [3]: 71 µM
- IC50 ([3]; kills 50% of the cells): > 100 µM
- GI50 [4]: 61 µM
- TGI [4]: >100 µM
- IC50 ([4]; kills 50% of the cells): > 100 µM
- GI50 [5]: 85 µM
- TGI [5]: >100 µM
- IC50 ([5]; kills 50% of the cells): > 100 µM
- GI50 [6]: 74 µM
- TGI [6]: >100 µM
- IC50 ([6]; kills 50% of the cells): > 100 µM
- GI50 [7]: 45 µM
- TGI [7]: 84 µM
- IC50 ([7]; kills 50% of the cells): > 100 µM
- GI50 [8]: 66 µM
- TGI [8]: >100 µM
- IC50 ([8]; kills 50% of the cells): > 100 µM
- GI50 [9]: 48 µM
- TGI [9]: 86 µM
- IC50 ([9]; kills 50% of the cells): > 100 µM

SMILES: COc1ccc(Cc2nn3c(Cc4cc(OC)c(OC)cc4S(=O)(=O)N(C)C)nnc3s2)cc1OC [TS51, 3-[2-(N,N-dimethylsulfamoyl)-4,5-dimethoxybenzyl]-6-(3,4-dimethoxybenzyl)-1,2,4-triazolo[3,4-b]-1,3,4-thiazole]
- IC50 [10]: > 100 µM
- GI50 [10]: < 100 µM
- LD50 [11]: > 500 mg/kg

SMILES: COc1cc(Cc2nnc3sc(CCCc4ccccc4)nn23)c(S(=O)(=O)N(C)C)cc1OC [TS52, 3-[2-(N,N-dimethylsulfamoyl)-4,5-dimethoxybenzyl]-6-(3-phenylpropyl)-1,2,4-triazolo[3,4-b]-1,3,4-thiazole]
- IC50 [10]: > 100 µM
- GI50 [10]: < 100 µM
- LD50 [11]: > 500 mg/kg

SMILES: COc1ccccc1CCc1nn2c(Cc3cc(OC)c(OC)cc3S(=O)(=O)N(C)C)nnc2s1 [TS54, 3-[2-(N,N-dimethylsulfamoyl)-4,5-dimethoxybenzyl]-6-[2-(2-methoxyphenyl)ethyl]-1,2,4-triazolo[3,4-b]-1,3,4-thiazole]
- IC50 [10]: > 100 µM
- GI50 [10]: < 100 µM
- LD50 [11]: > 500 mg/kg

SMILES: COc1ccc(CCc2nn3c(Cc4cc(OC)c(OC)cc4S(=O)(=O)N(C)C)nnc3s2)cc1 [TS55, 3-[2-(N,N-dimethylsulfamoyl)-4,5-dimethoxybenzyl]-6-[2-(4-methoxyphenyl)ethyl]-1,2,4-triazolo[3,4-b]-1,3,4-thiazole]
- IC50 [10]: > 100 µM
- GI50 [10]: < 100 µM
- LD50 [11]: > 500 mg/kg

SMILES: COc1cc(Cc2nnc3sc(COc4ccccc4)nn23)c(S(=O)(=O)N(C)C)cc1OC [TS56, 3-[2-(N,N-dimethylsulfamoyl)-4,5-dimethoxybenzyl]-6-phenoxymethyl-1,2,4-triazolo[3,4-b]-1,3,4-thiazole]
- IC50 [10]: > 100 µM
- GI50 [10]: < 100 µM
- LD50 [11]: > 500 mg/kg

SMILES: COc1cccc(Cc2nn3c(Cc4cc(OC)c(OC)cc4S(=O)(=O)N(C)C)nnc3s2)c1 [TS58, 3-[2-(N,N-dimethylsulfamoyl)-4,5-dimethoxybenzyl]-6-(3-methoxybenzyl)-1,2,4-triazolo[3,4-b]-1,3,4-thiazole]
- IC50 [10]: > 100 µM
- GI50 [10]: < 100 µM
- LD50 [11]: > 500 mg/kg

SMILES: COc1cc(Cc2nnc3sc(-c4cc(OC)c(OC)c(OC)c4)nn23)c(S(=O)(=O)N(C)C)cc1OC [TS59, 3-[2-(N,N-dimethylsulfamoyl)-4,5-dimethoxybenzyl]-6-(3,4,5-trimethoxyphenyl)-1,2,4-triazolo[3,4-b]-1,3,4-thiazole]
- IC50 [10]: > 100 µM
- GI50 [10]: < 100 µM
- LD50 [11]: > 500 mg/kg

SMILES: COc1cc(Cc2nnc3sc(-c4ccc([N+](=O)[O-])cc4Cl)nn23)c(S(=O)(=O)N(C)C)cc1OC [TS61, 3-[2-(N,N-dimethylsulfamoyl)-4,5-dimethoxybenzyl]-6-(2-chloro-4-nitrophenyl)-1,2,4-triazolo[3,4-b]-1,3,4-thiazole]
- IC50 [10]: > 100 µM
- GI50 [10]: < 100 µM
- LD50 [11]: > 500 mg/kg

SMILES: COc1cc(Cc2nnc3sc(-c4cccc(N)c4)nn23)c(S(=O)(=O)N(C)C)cc1OC [TS70, 3-[2-(N,N-dimethylsulfamoyl)-4,5-dimethoxybenzyl]-6-(3-aminophenyl)-1,2,4-triazolo[3,4-b]-1,3,4-thiazole]
- IC50 [10]: > 100 µM
- GI50 [10]: < 100 µM
- LD50 [11]: > 500 mg/kg
